# Experiment: Drug efficacy test: body weight of the mice
# Format: in vivo, male nude mice (Balb nu/nu)
# Procedure: Human prostate cancer PC-3 cells were inoculated under the dorsal skin of male nude mice (Balb nu/nu, 5-week-old, CHARLES RIVER LABORATORIES JAPAN, INC.) at 3×10^6 cells per mouse. At the time when the tumor volume reached 90.7±4.5 mm^3 (mean±standard error (SE)) (on day 10 after the inoculation), the drug was administered into the tail vein. […] It should be noted that the dosage is the amount in terms of the drug for each of the groups. […] It should be noted that, when the dosage of the bortezomib aqueous solution was set to more than 1 mg/kg, toxicity due to the active pharmaceutical ingredient became remarkable and the amount of body weight loss reached a severe level (e.g., a loss of 20% or more).
structure (smiles),measurement,setting,value
"CC(C)C[C@H](NC(=O)[C@H](Cc1ccccc1)NC(=O)c1cnccn1)B(O)O [Comparative Example 2, bortezomib]",Body weight loss,"dosage of more than 1 mg/kg, toxicity became remarkable",≥ 20%
same,Relative body weight 7 days after administration vs administration date,"tail vein, 1 mg/kg",no significant difference in mouse body weight

# Reference: patent US9561284B2, “Pharmaceutical composition containing a block copolymer bound to a boronic acid compound” (NANOCARRIER CO., LTD., priority 2011, dated 2017)
